The results in this text go back to ChEMBL document CHEMBL1201862, “PubChem BioAssay data set” (2004).

Among the test systems are 786-0; ACHN; BT-549; HOP-62; K562; LOX IMVI; MDA-N; NCI-H23; NCI-H522; NCI/ADR-RES; OVCAR-4; RPMI-8226; SW-620; T47D; U-251; UACC-62; SR.
Holding throughout (assay): NCI anticancer screen, dose series, 48 h

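Cells were grown in 96-well plates and exposed to each compound for 48 hours at five concentrations; endpoints were interpolated linearly between bracketing concentrations, or set to the highest concentration if not reached. Here, GI50 denotes the concentration required for 50% inhibition of growth.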 Activity calls are given as the source filed them. No stated cut-off is given here; in the data, active = GI50 up to about 1.1 µM and inactive = higher.

On to `O=C(NCCCCCCNCc1cccc2ccccc12)Nc1cccc2ccccc12`, for which the GI50 in the experiment with 786-0, with ACHN, with BT-549, with HOP-62, with K562 and in the experiment on LOX IMVI was > 100 µM (inactive) throughout. Besides, the GI50 with MDA-N, in the experiment with NCI-H23, in the experiment on NCI-H522, in the experiment with NCI/ADR-RES, in the experiment on OVCAR-4 and with RPMI-8226 was > 100 µM (inactive) in each case. Further, the GI50 in the experiment on SW-620, with T47D, with U-251 and with UACC-62 was > 100 µM (inactive) throughout.
`COC(=O)C1=C(O)C(C(=O)OC)C2CC(=O)CC1C2(C)C` (configuration not stated): the GI50 in the experiment on 786-0, in the experiment on ACHN, with BT-549, with HOP-62, with K562 and in the experiment on MDA-N was > 100 µM (inactive) in each case. In addition, the GI50 in the experiment with NCI-H23, in the experiment with NCI-H522, in the experiment with NCI/ADR-RES, in the experiment on OVCAR-4, with RPMI-8226 and in the experiment on SR was > 100 µM (inactive) each time. Also, the GI50 in the experiment with SW-620, in the experiment with T47D, in the experiment with U-251 and with UACC-62 was > 100 µM (inactive) each time.
Take `COc1cc2c(c(OC)c1OC)-c1ccc(SC)cc1C(=O)CC2`: the GI50 in the experiment on 786-0 is < 0.01 µM (active); with ACHN, < 0.01 µM (active); with BT-549, > 100 µM (inactive); in the experiment on K562, < 0.01 µM (active); in the experiment on LOX IMVI it was < 0.01 µM (active); in the experiment on MDA-N, 0.0243 µM (active). The GI50 is < 0.01 µM (active) in the experiment on NCI-H23; < 0.01 µM (active) in the experiment on NCI-H522; 7.76 µM (inactive) with OVCAR-4; < 0.01 µM (active) in the experiment with RPMI-8226; < 0.0213 µM (active) in the experiment with SR; < 0.0228 µM (active) in the experiment with SW-620. Further, the values for the GI50 in the experiment with T47D, in the experiment on U-251 and in the experiment on UACC-62 were > 100 µM (inactive), < 0.01 µM (active) and < 0.01 µM (active), respectively.
As for `CC1OC2OC3C(OCC(O)C3O)OC(=O)[C@]34CCC(C)(C)CC3C3=CCC5[C@@]6(C)C[C@H](O)[C@H](OC7OC(CO)C(O)C(O)C7OC7OCC(OC(=O)CC(C)(O)CC(=O)OC1C(O)C2O)C(O)C7O)[C@@](C)(CO)C6CC[C@@]5(C)[C@]3(C)CC4` (some centres not stated), the GI50 is 12.1 µM (inactive) in the experiment on 786-0; 6.34 µM (inactive) in the experiment on ACHN; 10.2 µM (inactive) with BT-549; 2.75 µM (inactive) in the experiment with HOP-62; 9.86 µM (inactive) in the experiment with LOX IMVI; 4.05 µM (inactive) with MDA-N. Further, the GI50 in the experiment on NCI-H23 is 3.1 µM (inactive); with NCI-H522 it was 3.67 µM (inactive); with NCI/ADR-RES it was 12.7 µM (inactive); in the experiment on RPMI-8226, 4.17 µM (inactive); in the experiment on SR, 6.35 µM (inactive); with SW-620 it was 8.85 µM (inactive). For the same molecule, the GI50 with T47D is 4.98 µM (inactive); in the experiment on U-251, 3.48 µM (inactive); in the experiment with UACC-62, 4.3 µM (inactive).
Turning to `O=C1c2ccccc2C(=O)N1c1ccc(Cc2ccc(N3C(=O)c4ccccc4C3=O)cc2)cc1`, the GI50 was > 100 µM (inactive) in the experiment with 786-0; > 100 µM (inactive) with ACHN; > 100 µM (inactive) in the experiment on BT-549; 49.9 µM (inactive) in the experiment with HOP-62; 0.853 µM (active) in the experiment on K562; > 100 µM (inactive) with LOX IMVI. Moreover, the GI50 in the experiment on MDA-N, with NCI-H23, in the experiment with NCI-H522, in the experiment on NCI/ADR-RES, in the experiment with OVCAR-4 and in the experiment on RPMI-8226 was > 100 µM (inactive) each time. In addition, the GI50 in the experiment with SW-620, in the experiment on T47D, in the experiment on U-251 and with UACC-62 was > 100 µM (inactive) in each case.
As to `N[C@@H]1C[C@H](N)c2c(Cl)sc(Cl)c21`, the GI50 in the experiment on 786-0, in the experiment with ACHN, with BT-549, with HOP-62, in the experiment on K562 and in the experiment on LOX IMVI was > 100 µM (inactive) in each case. Further, the GI50 with MDA-N, with NCI-H23, with NCI/ADR-RES, with OVCAR-4, in the experiment with RPMI-8226 and in the experiment with SR was > 100 µM (inactive) each time. The GI50 in the experiment on SW-620, in the experiment with T47D, in the experiment with U-251 and in the experiment on UACC-62 was > 100 µM (inactive) throughout.
In the case of `O=C(N/N=C\c1cccc(O)c1)c1ccncc1`, the GI50 in the experiment on 786-0, in the experiment with ACHN, with BT-549, in the experiment on HOP-62, in the experiment on K562 and with LOX IMVI was > 100 µM (inactive) throughout. Further, the GI50 with MDA-N, with NCI-H23, in the experiment with NCI-H522, in the experiment with NCI/ADR-RES, in the experiment with OVCAR-4 and with SR was > 100 µM (inactive) throughout. Moreover, the GI50 in the experiment with SW-620, with T47D, in the experiment on U-251 and in the experiment on UACC-62 was > 100 µM (inactive) in each case.
Take `CCOC(=O)c1cc2c(ccc3cc(C(=O)OCC)[nH]c32)[nH]1`: the GI50 with 786-0 was 15.6 µM (inactive); in the experiment with ACHN it was 55.5 µM (inactive); with BT-549, 52.6 µM (inactive); with HOP-62 it was 21.7 µM (inactive); with K562 it was 97.1 µM (inactive); in the experiment with LOX IMVI, 25.6 µM (inactive). In addition, the GI50 in the experiment on MDA-N is 51.5 µM (inactive); in the experiment with NCI-H23, 27.2 µM (inactive); with NCI-H522, 67.1 µM (inactive); in the experiment with OVCAR-4, 11.4 µM (inactive); in the experiment on RPMI-8226, 57.1 µM (inactive); with SR it was 17.5 µM (inactive). Further, the GI50 in the experiment with SW-620 is 25.8 µM (inactive); in the experiment on T47D, 38 µM (inactive); in the experiment with U-251 it was 6.15 µM (inactive); in the experiment with UACC-62 it was 45.9 µM (inactive).
As to `CC(=O)NCCC1CN(C(=O)/C=C\C#C[Si](C)(C)C)c2ccccc21` (configuration not stated), the GI50 is 26.6 µM (inactive) in the experiment with ACHN; 21 µM (inactive) in the experiment with BT-549; 15.3 µM (inactive) in the experiment with K562; 11.9 µM (inactive) in the experiment with LOX IMVI; 13.5 µM (inactive) in the experiment on MDA-N; 11.9 µM (inactive) with NCI-H23. The GI50 is 10.5 µM (inactive) in the experiment with NCI-H522; 22.1 µM (inactive) in the experiment on NCI/ADR-RES; 18.9 µM (inactive) in the experiment with OVCAR-4; 10.5 µM (inactive) in the experiment on RPMI-8226; > 10 µM (inactive) with SR; 35.2 µM (inactive) in the experiment on SW-620. Besides, the figures for the GI50 in the experiment on T47D, with U-251 and with UACC-62 were 23.3 µM (inactive), > 10 µM (inactive) and 8.49 µM (inactive), respectively.
In the case of `N[C@@H]1c2c(Br)sc(Br)c2[C@H](O)[C@@H]1O`, the GI50 with 786-0, with ACHN, in the experiment with BT-549, in the experiment on K562, with LOX IMVI and in the experiment on MDA-N was > 100 µM (inactive) in each case. Further, the GI50 in the experiment with NCI-H23, with NCI-H522, with NCI/ADR-RES, with OVCAR-4, in the experiment with SW-620 and in the experiment with T47D was > 100 µM (inactive) in each case. Also, the GI50 with U-251 and with UACC-62 was > 100 µM (inactive) throughout.
Regarding `COc1ccc(C2SCC(=O)N2NC(=O)c2ccc(NC(C)=O)cc2)c(OC)c1` (configuration not stated), the GI50 with 786-0, in the experiment on ACHN, with BT-549, in the experiment with HOP-62, in the experiment with K562 and with MDA-N was > 100 µM (inactive) each time. For the same molecule, the GI50 was > 100 µM (inactive) with NCI-H23; > 100 µM (inactive) in the experiment on NCI/ADR-RES; > 100 µM (inactive) in the experiment on OVCAR-4; > 100 µM (inactive) in the experiment with RPMI-8226; > 100 µM (inactive) in the experiment on SW-620; 93.3 µM (inactive) with T47D. For the same molecule, the figures for the GI50 with U-251 and in the experiment on UACC-62 were 33.6 µM (inactive) and > 100 µM (inactive), respectively.
Consider `CCOC(=O)Cc1csc2[n+]1C(=O)/C(=C/c1cccc(OC)c1O)S2`, for which the GI50 was 68.7 µM (inactive) with 786-0; 69.5 µM (inactive) in the experiment on ACHN; 13.8 µM (inactive) in the experiment with BT-549; > 100 µM (inactive) in the experiment on HOP-62; 51.8 µM (inactive) with LOX IMVI; 40.1 µM (inactive) with MDA-N. Moreover, the GI50 in the experiment with NCI-H23 was 33.7 µM (inactive); in the experiment with NCI/ADR-RES, 47 µM (inactive); in the experiment on OVCAR-4, 64.4 µM (inactive); in the experiment with SW-620, > 100 µM (inactive); with T47D, 36.3 µM (inactive); with U-251, 0.192 µM (active). Further, the GI50 in the experiment with UACC-62 is 97.7 µM (inactive).
Consider `COc1cccc(/C=N/NC(=O)CN(C)C)c1O`, for which the GI50 with 786-0, in the experiment on ACHN, with BT-549, with HOP-62, with K562 and with LOX IMVI was > 100 µM (inactive) in each case. Moreover, the GI50 in the experiment on MDA-N, in the experiment with NCI-H23, with NCI-H522, with NCI/ADR-RES, with OVCAR-4 and in the experiment with SW-620 was > 100 µM (inactive) in each case. Besides, the GI50 with T47D, in the experiment with U-251 and in the experiment with UACC-62 was > 100 µM (inactive) each time.
